In PubChem BioAssay (NCI):
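Compound exposure: 48 hours, 5 concentrations, 96-well plates. The concentration for full growth arrest is given as TGI.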

Assays:
Experiment in all cases: NCI tumour cell line growth inhibition, 48 h
[1] = test system: HT29 colon
[2] = test system: UACC-62 melanoma
[3] = test system: OVCAR-3 ovarian
[4] = test system: NCI-H522 lung
[5] = test system: SK-OV-3 ovarian
[6] = test system: MCF7 breast
[7] = test system: OVCAR-4 ovarian
[8] = test system: DLD-1 colon
[9] = test system: IGROV1 ovarian
[10] = test system: DMS 114 small cell lung
[11] = test system: UACC-257 melanoma
[12] = test system: HOP-92 NSCLC
[13] = test system: KM20L2 colon
[14] = test system: SNB-75 CNS
[15] = test system: XF 498 CNS
[16] = test system: HCC-2998 colon
[17] = test system: HCT-15 colon
[18] = test system: SK-MEL-5 melanoma
[19] = test system: CCRF-CEM leukemia
[20] = test system: COLO 205 colon
[21] = test system: SW-620 colon
[22] = test system: NCI-H23 lung
[23] = test system: SF-268 CNS
[24] = test system: SN12K1 renal
[25] = test system: SK-MEL-28 melanoma
[26] = test system: P388/ADR leukemia
[27] = test system: HOP-18 NSCLC
[28] = test system: SF-539 CNS
[29] = test system: HL-60(TB) leukemia
[30] = test system: CAKI-1 renal
[31] = test system: U251 CNS
[32] = test system: NCI-H460 lung
[33] = test system: M19-MEL melanoma
[34] = test system: K-562 leukemia
[35] = test system: RXF 393 renal
[36] = test system: SN12C renal
[37] = test system: A498 renal
[38] = test system: SNB-78 CNS
[39] = test system: NCI/ADR-RES ovarian
[40] = test system: DMS 273 small cell lung
[41] = test system: UO-31 renal
[42] = test system: EKVX NSCLC
[43] = test system: NCI-H226 lung
[44] = test system: MALME-3M melanoma
[45] = test system: A549 NSCLC
[46] = test system: HCT-116 colon
[47] = test system: SK-MEL-2 melanoma
[48] = test system: OVCAR-5 ovarian
[49] = test system: SF-295 CNS
[50] = test system: OVCAR-8 ovarian
[51] = test system: LOX IMVI melanoma
[52] = test system: HOP-62 NSCLC
[53] = test system: SNB-19 CNS

O=C1c2cccc3cc4ccccc4c(c23)C(=O)N1CCNCCN1C(=O)c2cccc3cc4ccccc4c(c23)C1=O
TGI [1]: 1690 nM
TGI [2]: 1130 nM
TGI [3]: 2410 nM
TGI [4]: 3600 nM
TGI [5]: 5800 nM
TGI [6]: 5170 nM
TGI [7]: 2140 nM
TGI [8]: 3800 nM
TGI [9]: 3560 nM
TGI [10]: 780 nM
TGI [11]: 2740 nM
TGI [12]: 1750 nM
TGI [13]: 2220 nM
TGI [14]: 1270 nM
TGI [15]: 820 nM
TGI [16]: 2230 nM
TGI [17]: 1530 nM
TGI [18]: 1840 nM
TGI [19]: 1040 nM
TGI [20]: 2220 nM
TGI [21]: 1870 nM
TGI [22]: 1210 nM
TGI [23]: 2550 nM
TGI [24]: 6960 nM
TGI [25]: 2650 nM
TGI [26]: 611 nM
TGI [27]: 879 nM
TGI [28]: 2200 nM
TGI [29]: 619 nM
TGI [30]: 1040 nM
TGI [31]: 1240 nM
TGI [32]: 278 nM
TGI [33]: 1780 nM
TGI [34]: 1470 nM
TGI [35]: 1820 nM
TGI [36]: 1590 nM
TGI [37]: 2260 nM
TGI [38]: 1820 nM
TGI [39]: 3110 nM
TGI [40]: 1000 nM
TGI [41]: 1570 nM
TGI [42]: 2230 nM
TGI [43]: 6120 nM
TGI [44]: 1770 nM
TGI [45]: 982 nM
TGI [46]: 1980 nM
TGI [47]: 3150 nM
TGI [48]: 1770 nM
TGI [49]: 906 nM
TGI [50]: 2310 nM
TGI [51]: 1270 nM
TGI [52]: 4920 nM
TGI [53]: 2110 nM
